Measurements taken from US9624266B2, “Brachiatin D and process for production thereof” (COUNCIL OF SCIENTIFIC & INDUSTRIAL RESEARCH, priority 2013, dated 2017).
“And” between values parts separate entries of the source, which are not always exact repeats. Identical values can stand only once. Non-standard residues stand in square brackets, D forms with d. Residues, ends and D or L forms follow the SMILES beside them. *: point of attachment. Aib = CC(C)(N)C(=O)O; X1 = CCC(C)C(CO)N*

Tests used:
[1] = system: MCF-7; test: MTT cytotoxicity assay, MCF-7 breast cell line; assay type: cell-based, human; details: for % growth inhibition: MCF-7, 1 μM
Experimental: (§1) For Cytotoxic assay, the MTT assay is useful for measuring the effect of a wide range of compounds on the in vitro growth of either normal or cancer cell lines. The assay was set up in a 96-well, flat-bottomed polystyrene microtiter plate. 3-5000 cancer cells were suspended per well in appropriate growth medium, and the cells were added in duplicate wells (triplicates were preferred). It was preferable to add the cells to the required number of wells in the plate prior to adding the peptaibol. After the cells were added to the plate, it was placed on an incubator for overnight incubation. After overnight incubation, the peptaibol was added at defined concentrations of 10, 20 and 50 μM to each set of duplicate wells and incubated for 48 hrs in CO2 incubator. The peptaibol was dissolved in dimethyl sulfoxide (DMSO) for the final addition. After 48 hr incubation, the MTT stock solution (2.5 μg/ml) was diluted with an equal volume of tissue culture medium and 20 μl of this solution was added directly to each well with a multichannel pipette. The plates were returned to the incubator for a period of at least 4 h. After 4 hr incubation, the plates were centrifuged at 1000 rpm for 10 min at ambient temperature, followed by inversion of the plates and blotting of excess medium. 150 μl of working DMSO was added to solubilize the MTT formazan product. A standard micro plate reader with adjustable wavelength across the visible spectrum was used. The OD values at 570 nm obtained for each set of triplicates corresponding to a specific concentration of a peptaibol was then transferred into a spreadsheet program.
Cytotoxicity assay was performed on a panel of cancer cell lines using fraction 4 (HF-4) as a test material. In order to determine their effect on cell proliferation, A-549 (lung cell line), HEP-2 (liver cell line), MCF-7 (breast cell line), monkey normal cell line (CV-1), OVCAR-5 (ovary cell line) and THP-1 (leukemia cell line) were treated at indicated concentration of 50 μM for 48 h. […]

[2] = system: NO; test: Inhibition of nitric oxide (nitrite) in LPS treated macrophages; assay type: cell-based, mouse
Experimental: NO is a short-lived molecule. […] Large quantity of nitrite is produced by macrophage when stimulated with LPS. But when cells were treated with brachiatin D, it was observed that brachiatin D inhibited LPS stimulated production of nitrite (p<0.001 at 0.001 μM dose).

[3] = system: PC-3; test: MTT cytotoxicity assay, PC-3 prostate cell line; assay type: cell-based, human; details: PC-3, 10 μM
Experimental: as §1, with “150 μl of working DMSO was added to solubilize the MTT formazan product.” left out, “The OD values at 570 nm obtained for each set of triplicates corresponding to a specific concentration of a peptaibol was then transferred into a spreadsheet program.” left out

[4] = system: IL-1β; test: IL-1β in LPS stimulated cell culture supernatant (ELISA); assay type: cell-based, mouse; details: LPS 1 μg/ml, 24 h
Experimental: (§2) For the estimation of pro-inflammatory cytokines (TNF-α, IL-1β and IL-6) in spleen cell culture supernatant, the splenocytes (2×10^6 cells) were seeded into a 96-well flat-bottom microtiter plate in 100 μl complete medium [RPMI 1640 supplemented with 12 mM HEPES (pH 7.1), 0.05 mM 2-mercaptoethanol, 100 IU/mL penicillin, 100 μg/mL streptomycin and 10% FCS]. Thereafter, variable does of purified peptaibol (brachiatin D) (0.001, 0.01 and 0.1 μM) were added giving a final volume of 200 μl. After subsequent stimulation with 1 μg/ml LPS for 24 h, the supernatants were harvested. The concentrations of TNF-α, IL-1β and IL-6 in culture supernatants were measured using mouse TNF-α, IL-1β and IL-6 ELISA kits (R&D Systems, USA), as per the instructions of the manufacturer
as §2, with “For” for “For the”, “medium.” for “medium [RPMI 1640 supplemented with 12 mM HEPES (pH 7.1), 0.05 mM 2-mercaptoethanol, 100 IU/mL penicillin, 100 μg/mL streptomycin and 10% FCS].”, “brachiatin D” for “peptaibol (brachiatin D)”, “manufacturer. […]” for “manufacturer”

[5] = system: HOP-62; test: MTT cytotoxicity assay, HOP-62 lung cell line; assay type: cell-based, human
Experimental: as §1
(§3) Cytotoxicity assay based on MTT was performed on a panel of cancer cell lines using brachiatin D as a test material. […] 5-flurouracil and adriyamycin were used as the positive controls; 5-flurouracil inhibited the growth of lung and leukemia cancer cell lines upto 73%, […] 88% respectively. Adriyamycin used at 1 μM could inhibit the proliferation of MCF-7 cells upto 77%.

[6] = system: A-549; test: cells; assay type: cell-based, human; details: for % age growth inhibition: A-549, 10 μM, 10 µM; for % growth inhibition: A-549, 20 μM, 20 µM
Experimental: as §1
(§4) Cytotoxicity assay was performed on a panel of cancer cell lines using fraction 4 (HF-4) as a test material. In order to determine their effect on cell proliferation, A-549 (lung cell line), HEP-2 (liver cell line), MCF-7 (breast cell line), monkey normal cell line (CV-1), OVCAR-5 (ovary cell line) and THP-1 (leukemia cell line) were treated at indicated concentration of 50 μM for 48 h. […] 5-flurouracil and adriyamycin were used as the positive controls; 5-flurouracil inhibited the growth of lung and leukemia cancer cell lines upto 75% and 83% respectively. Moreover adriyamycin used at 1 μM could inhibit the proliferation of MCF-7 cells upto 73%.
as §3

[7] = system: THP-1; test: cells; assay type: cell-based, human; details: for % growth inhibition: THP-1, 20 μM, 20 µM
Experimental: as §1, §4, §3

[8] = system: lymphocyte proliferation; test: Lymphocyte proliferation assay (splenocytes, MTT); assay type: cell-based, mice; details: concentration range 0.001 μM-10 μM
Description: For Lymphocyte Proliferation Assay, the organic crude extract and then the purified peptaibol was taken for lymphocyte proliferation assay to check their activity by the following procedure. The mice spleen was collected from a live animal after sacrificing it under aseptic conditions in HBSS. The spleen was then minced using a pair of scissors and passed through a fine steel mesh to obtain a homogeneous cell suspension and the erythrocytes were lysed with ammonium chloride (0.8%, w/v). After centrifugation (380×g at 4° C. for 10 min), the pelleted cells were washed three times with PBS and resuspended in complete medium [RPMI 1640 supplemented with 12 mM HEPES (pH 7.1), 0.05 mM 2-mercaptoethanol, 100 IU/mL penicillin, 100 µg/mL streptomycin and 10% FCS]. The cell number was counted with a haemocytometer by the trypan blue dye exclusion technique. Cell viability exceeded 95%.
Splenocytes (2×10^6 cells) were then seeded into a 96-well flat-bottom microtiter plate in 100 μl complete medium. Thereafter, variable doses of the test material along with LPS (1 μg/ml) to stimulate B cell proliferation were added giving a final volume of 200 μl. Test materials used in this assay were variable doses of the purified peptaibol (0.001, 0.01 and 0.1 μM). […] 200 μl of DMSO (192 μl DMSO with 8 μl IN HCl) was added to each well, and the absorbance was determined in an ELISA reader at 570 nm after 15 min. […]

[9] = system: TNF-α; test: TNF-α in LPS stimulated cell culture supernatant (ELISA); assay type: cell-based, mouse; details: LPS 1 μg/ml, 24 h, dose dependent, 0.001-0.1 dose range
Experimental: as §2
as §2, with “For” for “For the”, “medium.” for “medium [RPMI 1640 supplemented with 12 mM HEPES (pH 7.1), 0.05 mM 2-mercaptoethanol, 100 IU/mL penicillin, 100 μg/mL streptomycin and 10% FCS].”, “brachiatin D” for “peptaibol (brachiatin D)”, “manufacturer. […]” for “manufacturer”

[10] = system: MiaPaCa-2; test: MTT cytotoxicity assay, MiaPaCa-2 pancreatic cell line; assay type: cell-based, human; details: MiaPaCa-2, 10 μM
Experimental: as §1, with “150 μl of working DMSO was added to solubilize the MTT formazan product.” left out, “The OD values at 570 nm obtained for each set of triplicates corresponding to a specific concentration of a peptaibol was then transferred into a spreadsheet program.” left out

[11] = system: IL-6; test: IL-6 in LPS stimulated cell culture supernatant (ELISA); assay type: cell-based, mouse; details: LPS 1 μg/ml, 24 h
Experimental: as §2
as §2, with “For” for “For the”, “medium.” for “medium [RPMI 1640 supplemented with 12 mM HEPES (pH 7.1), 0.05 mM 2-mercaptoethanol, 100 IU/mL penicillin, 100 μg/mL streptomycin and 10% FCS].”, “brachiatin D” for “peptaibol (brachiatin D)”, “manufacturer. […]” for “manufacturer”

SMILES: COc1cccc2c1C(=O)c1c(O)c3c(c(O)c1C2=O)C[C@@](O)(C(=O)CO)C[C@@H]3O[C@H]1C[C@H](N)[C@H](O)[C@H](C)O1 [Adriyamycin]
- % growth inhibition [1]: 73%
- % growth inhibition ([1]; 1 µM): ≤ 73%

SMILES: CCC(C)C(CO)NC(=O)C1CCCN1C(=O)C(CC(C)C)NC(=O)C(CC(N)=O)NC(=O)C(C)(C)NC(=O)C1CCCN1C(=O)C(C)(C)NC(=O)C(CC(C)C)NC(=O)C(C)(C)NC(=O)C(CC(N)=O)NC(=O)C(C)(C)NC(C)=O (stereo not drawn) [Brachiatin D, AcAib-Asn-Aib-Leu-Aib-Pro-Aib-Asn-Leu-Pro-Ileuol] (Ac-[Aib]N[Aib]L[Aib]P[Aib]NLP-X1; configuration not given here)
- LPS stimulated production of nitrite ([2]; 0.001 μM dose, p<0.001): inhibited
- NO production ([2]; 0.1 μM, p<0.05): Marginal increase
- % age growth inhibition [3]: 100%
- effect on LPS induced IL-1β [4]: inhibited
- % age growth inhibition ([1]; MCF-7, 10 μM): 100%
- sensitivity of the cell line to cytotoxic effects ([5]; HOP-62): much resistance
- % age growth inhibition ([5]; HOP-62, 10 μM): 21%
- % age growth inhibition ([5]; HOP-62, 20 μM): 35%
- % age growth inhibition [6]: 63%
- % age growth inhibition ([6]; listed as brachiatin D): ≤ 63%
- % growth inhibition [6]: 96%
- % growth inhibition ([6]; listed as brachiatin D): > 95%
- % age growth inhibition ([7]; THP-1, 10 μM): 56%
- % growth inhibition [7]: 77%
- % growth inhibition ([7]; listed as brachiatin D): > 75%
- activity against lymphocyte proliferation [8]: good activity
- inhibition of TNF-α production [9]: up to 42%
- % age growth inhibition [10]: 100%
- effect on LPS induced IL-6 [11]: inhibited

SMILES: O=c1[nH]cc(F)c(=O)[nH]1 [5-Fluorouracil, reference compound]
- % age growth inhibition ([5]; HOP-62, 20 μM, 20 µM): 81%
- inhibition at 20 µM ([5]; Homo sapiens, HOP-62, HOP-62, 20 μM, read-out: % age growth inhibition): ≤ 81%
- % growth inhibition [6]: 75% and 73%
- inhibition at 20 µM ([6]; Homo sapiens, A549, A-549, 20 μM, read-out: % growth inhibition): ≤ 75%
- inhibition at 20 µM ([7]; Homo sapiens, THP-1, THP-1, 20 μM, read-out: % growth inhibition): ≤ 83%
- % growth inhibition [7]: 83% and 88%
